Data as given in US8420675B2, “Aminotetrahydroindazoloacetic acids” (Hoffmann-La Roche Inc., priority 2008, dated 2013).

Molecular target: T1, human CRTH2 (Homo sapiens, UniProt Q9Y5Y4)
T1 construct: expressed in transfected cells
T1 sequence (Q9Y5Y4 1-395): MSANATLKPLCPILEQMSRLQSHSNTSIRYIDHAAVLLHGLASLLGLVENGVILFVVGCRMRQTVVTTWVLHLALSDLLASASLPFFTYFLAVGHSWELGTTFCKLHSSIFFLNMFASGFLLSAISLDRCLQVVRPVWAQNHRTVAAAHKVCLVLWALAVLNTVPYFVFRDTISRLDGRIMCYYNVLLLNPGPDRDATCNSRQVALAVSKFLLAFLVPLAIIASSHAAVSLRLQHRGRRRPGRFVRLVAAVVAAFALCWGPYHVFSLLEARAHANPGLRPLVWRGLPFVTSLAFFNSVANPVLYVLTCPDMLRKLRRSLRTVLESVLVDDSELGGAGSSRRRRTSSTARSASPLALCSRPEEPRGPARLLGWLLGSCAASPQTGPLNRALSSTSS
Experiment: Human CRTH2 Receptor Binding Assay (whole cell, [3H]ramatroban competition)
Details: CHO-K1 cells expressing human CRTH2 and G-alpha16; 20 nM [3H]ramatroban; 1 hour, room temperature
Description: A whole cell receptor binding assay using [^3H]ramatroban as the competing radioactive ligand was employed to evaluate the compound binding activity to human CRTH2. The radioactive ligand [^3H]ramatroban was synthesized according to Sugimoto et. al. (Eur. J. Pharmacol. 524, 30-37, 2005) to a specific activity of 42 Ci/mmol.
A cell line stably expressing human CRTH2 was established by transfecting CHO-K1 cells with two mammalian expression vectors that harbored human CRTH2 and G-alpha16 cDNAs, respectively, using FuGene® 6 transfection reagent (from Roche). Stable clones expressing CRTH2 were selected by staining each clone with BM16 (BD Pharmingen™ from BD Biosciences, a division of Becton, Dickinson and Company), which is a rat monoclonal antibody to human CRTH2. The cells were maintained as monolayer cultures in Ham's F-12 medium containing 10% fetal bovine serum, 100 units/mL penicillin, 100 μg/mL streptomycin, 2 mM glutamine, 0.5 mg/mL G418 (geneticin) for CRTH2, and 0.2 mg/mL hygromycin-B (for G-alpha 16). For whole cell receptor binding assay, the monolayer cells were rinsed once with PBS (phosphate buffered saline), dissociated using ethylenediaminetetraacetate (Versene™ EDTA Lonza Inc.), and suspended in PBS containing 10 mM MgCl2 and 0.06% BSA (bovine serum albumin) at 1.5×10^6 cells/mL.
The binding reactions (0.2 mL) were performed in 96-well plates at room temperature in PBS containing 1.5×10^5 cells, 10 mM MgCl2, 0.06% BSA, 20 nM [^3H]ramatroban, and test compound at various concentrations. After 1 hour of binding reactions, the cells were harvested on GF™/B filter microplates (microtiter plates with embedded glass fiber from PerkinElmer, Inc.) and washed 5 times with PBS using a Filtermate™ Harvester (a cell harvester that harvests and washes cells from microplates from PerkinElmer, Inc.). The radioactivities bound to the cells were determined using a microplate scintillation counter (TopCount® NXT, from PerkinElmer, Inc.) after adding 50 μL of Microscint™ 20 scintillation fluid (from PerkinElmer, Inc.) to each well of the filter plates. The radioactivity from non-specific binding was determined by replacing compound with 10 μM of 15(R)-15-methyl PGD2 (from Cayman Chemical Company) in the reaction mixtures. The radioactivity bound to the cells in the absence of compound (total binding) was determined by replacing compound with 0.25% of DMSO (dimethyl sulfoxide) in the reaction mixture. Specific binding data were obtained by subtracting the radioactivity of non-specific binding from each binding data.
The IC50 value is defined as the concentration of the tested compound that is required for 50% inhibition of total specific binding. In order to calculate the IC50 value, the percent inhibition data were determined for 7 concentrations for each compound. The percent inhibition for a compound at each concentration was calculated according to the following formula, [1-(specific binding in the presence of compound)/(total specific binding)]x100. The IC50 value was then obtained by fitting the percent inhibition data to a sigmoidal dose-response (4 parameter logistic) model in the XLfit® software Excel add-in program [from ID Business Solutions Ltd., model 205, where F(x)=(A+(B−A)/(1+((C/x)^D)))].

Row | IC50 | SMILES
1 | 7.2 nM | CN([C@@H]1CCCc2c1cnn2CC(=O)O)S(=O)(=O)c1ccc(Oc2ccc(Cl)cc2F)c(Cl)c1 [Example 9-11a, ((R)-4-{[3-Chloro-4-(4-chloro-2-fluoro-phenoxy)-benzenesulfonyl]-methyl-amino}-4,5,6,7-tetrahydro-indazol-1-yl)-acetic acid]
2 | 11.1 nM | CN([C@@H]1CCCc2c1cnn2CC(=O)O)S(=O)(=O)c1ccc(Oc2ccc(Cl)cc2)c(Cl)c1 [Example 9-3a, ((R)-4-{[3-Chloro-4-(4-chloro-phenoxy)-benzenesulfonyl]-methyl-amino}-4,5,6,7-tetrahydro-indazol-1-yl)-acetic acid]
3 | 52.9 nM | O=C(O)Cn1ncc2c1CCC[C@H]2NS(=O)(=O)c1cc(F)c(Oc2ccc(F)cc2)cc1Cl [Example 5-6a, {(R)-4-[2-Chloro-5-fluoro-4-(4-fluoro-phenoxy)-benzenesulfonylamino]-4,5,6,7-tetrahydro-indazol-1-yl}-acetic acid]
4 | 21.7 nM | CN([C@@H]1CCCc2c1cnn2CC(=O)O)S(=O)(=O)c1ccc(Oc2ccc(Cl)cc2Cl)c(Cl)c1 [Example 9-6a, ((R)-4-{[3-Chloro-4-(2,4-dichloro-phenoxy)-benzenesulfonyl]-methyl-amino}-4,5,6,7-tetrahydro-indazol-1-yl)-acetic acid]
5 | 30.3 nM | O=C(O)CCn1ncc2c1CCC[C@H]2NS(=O)(=O)c1cnc(Oc2ccc(Cl)cc2)c(Br)c1 [Example 2-12a, 3-{(R)-4-[5-Bromo-6-(4-chloro-phenoxy)-pyridine-3-sulfonylamino]-4,5,6,7-tetrahydro-indazol-1-yl}-propionic acid]
6 | 466 nM | O=C(O)Cn1ncc2c1CCCC2NS(=O)(=O)c1ccc(-c2ccc(F)c(Cl)c2)cc1 (stereo not drawn) [Example 10-15a, [4-(3′-Chloro-4′-fluoro-biphenyl-4-sulfonylamino)-4,5,6,7-tetrahydro-indazol-1-yl]-acetic acid]
7 | 10.2 nM | COc1cc(Cl)ccc1Oc1ccc(S(=O)(=O)N(C)[C@@H]2CCCc3c2cnn3CC(=O)O)cc1Cl [Example 9-20a, ((R)-4-{[3-Chloro-4-(4-chloro-2-methoxy-phenoxy)-benzenesulfonyl]-methyl-amino}-4,5,6,7-tetrahydro-indazol-1-yl)-acetic acid]
8 | 8.4 nM | CN([C@@H]1CCCc2c1cnn2CC(=O)O)S(=O)(=O)c1cnc(Oc2ccc(F)cc2)c(Br)c1 [Example 6-12a, ((R)-4-{[5-Bromo-6-(4-fluoro-phenoxy)-pyridine-3-sulfonyl]-methyl-amino}-4,5,6,7-tetrahydro-indazol-1-yl)-acetic acid]
9 | 130 nM | CN([C@@H]1CCCc2c1cnn2CC(=O)O)S(=O)(=O)c1cc(-c2ccc(F)cc2)cc(C(F)(F)F)c1 [Example 12-1a, {(R)-4-[(4′-Fluoro-5-trifluoromethyl-biphenyl-3-sulfonyl)-methyl-amino]-4,5,6,7-tetrahydro-indazol-1-yl}-acetic acid]
10 | 26.4 nM | Cc1ccc(Oc2ncc(S(=O)(=O)NC3CCCc4c3cnn4CC(=O)O)cc2Br)cc1 (stereo not drawn) [Example 2-6a, [4-(5-Bromo-6-p-tolyloxy-pyridine-3-sulfonylamino)-4,5,6,7-tetrahydro-indazol-1-yl]-acetic acid]
11 | 369 nM | COc1ccc(-c2cccc(S(=O)(=O)NC3CCCc4c3cnn4CC(=O)O)c2)cc1 (stereo not drawn) [Example 10-5a, [4-(4′-Methoxy-biphenyl-3-sulfonylamino)-4,5,6,7-tetrahydro-indazol-1-yl]-acetic acid]
12 | 475 nM | O=C(O)CCn1ncc2c1CCCC2NS(=O)(=O)c1ccc(-c2ccccc2)cc1 (stereo not drawn) [Example 1-6a, 3-[4-(Biphenyl-4-sulfonylamino)-4,5,6,7-tetrahydro-indazol-1-yl]-propionic acid]
13 | 5.6 nM | O=C(O)CCn1ncc2c1CCCC2NS(=O)(=O)c1ccc(-c2ccccc2)cc1 (single isomer, unassigned) [Example 10-30a, 3-[4-(biphenyl-4-sulfonylamino)-4,5,6,7-tetrahydro-indazol-1-yl]-propionic acid]
14 | 7.6 nM | CN([C@@H]1CCCc2c1cnn2CC(=O)O)S(=O)(=O)c1ccc(Oc2ccc(F)cc2F)c(Cl)c1 [Example 9-32a, ((R)-4-{[3-Chloro-4-(2,4-difluoro-phenoxy)-benzenesulfonyl]-methyl-amino}-4,5,6,7-tetrahydro-indazol-1-yl)-acetic acid]
15 | 10.4 nM | CN([C@@H]1CCCc2c1cnn2CC(=O)O)S(=O)(=O)c1cc(F)c(Oc2ccc(F)cc2)c(F)c1 [Example 9-39a, ((R)-4-{[3,5-Difluoro-4-(4-fluoro-phenoxy)-benzenesulfonyl]-methyl-amino}-4,5,6,7-tetrahydro-indazol-1-yl)-acetic acid]
16 | 34.9 nM | Cc1cc(S(=O)(=O)NC2CCCc3c2cnn3CC(=O)O)cnc1Oc1ccc(Cl)cc1 (stereo not drawn) [Example 3-1a, {4-[6-(4-Chloro-phenoxy)-5-methyl-pyridine-3-sulfonylamino]-4,5,6,7-tetrahydro-indazol-1-yl}-acetic acid]
17 | 13.2 nM | CN([C@@H]1CCCc2c1cnn2CC(=O)O)S(=O)(=O)c1ccc(Oc2ccc(Cl)c(F)c2)c(Cl)c1 [Example 9-21a, ((R)-4-{[3-Chloro-4-(4-chloro-3-fluoro-phenoxy)-benzenesulfonyl]-methyl-amino}-4,5,6,7-tetrahydro-indazol-1-yl)-acetic acid]
18 | 300 nM | O=C(O)Cn1ncc2c1CCCC2NS(=O)(=O)c1ccc(-c2ccc(F)cc2)cc1 (stereo not drawn) [Example 10-7a, [4-(4′-Fluoro-biphenyl-4-sulfonylamino)-4,5,6,7-tetrahydro-indazol-1-yl]-acetic acid]
19 | 37.1 nM | CN([C@@H]1CCCc2c1cnn2CC(=O)O)S(=O)(=O)c1ccc(Oc2ccc(Cl)cc2)cc1Cl [Example 9-4a, ((R)-4-{[2-Chloro-4-(4-chloro-phenoxy)-benzenesulfonyl]-methyl-amino}-4,5,6,7-tetrahydro-indazol-1-yl)-acetic acid]
20 | 23.1 nM | CN([C@@H]1CCCc2c1cnn2CC(=O)O)S(=O)(=O)c1ccc(Oc2ccc(C(N)=O)cc2)c(Cl)c1 [Example 9-36a, ((R)-4-{[4-(4-Carbamoyl-phenoxy)-3-chloro-benzenesulfonyl]-methyl-amino}-4,5,6,7-tetrahydro-indazol-1-yl)-acetic acid]
21 | 91.4 nM | CN([C@@H]1CCCc2c1cnn2CC(=O)O)S(=O)(=O)c1ccc(Oc2ccc(Cl)cc2Cl)cc1Cl [Example 9-8a, ((R)-4-{[2-Chloro-4-(2,4-dichloro-phenoxy)-benzenesulfonyl]-methyl-amino}-4,5,6,7-tetrahydro-indazol-1-yl)-acetic acid]
22 | 188 nM | Cc1cc(C)cc(-c2ccc(S(=O)(=O)NC3CCCc4c3cnn4CC(=O)O)cc2)c1 (stereo not drawn) [Example 10-18a, [4-(3′,5′-Dimethyl-biphenyl-4-sulfonylamino)-4,5,6,7-tetrahydro-indazol-1-yl]-acetic acid]
23 | 4 nM | CN([C@@H]1CCCc2c1cnn2CCC(=O)O)S(=O)(=O)c1cc(C(F)(F)F)cc(S(=O)(=O)c2ccc(F)cc2)c1 [Example 13-3a, 3-((R)-4-{[3-(4-Fluoro-benzenesulfonyl)-5-trifluoromethyl-benzenesulfonyl]-methyl-amino}-4,5,6,7-tetrahydro-indazol-1-yl)-propionic acid]
24 | 199 nM | O=C(O)Cn1ncc2c1CCCC2NS(=O)(=O)c1ccc(Oc2ccccc2)cc1 (stereo not drawn) [Example 1-3a, [4-(4-Phenoxy-benzenesulfonylamino)-4,5,6,7-tetrahydro-indazol-1-yl]-acetic acid]
